Assay results: patent US20070231403A1, “Natural composite preservatives” (priority 2006, published 2007)

Test: DPPH radical scavenging (antioxidant) assay
Assay type: biochemical
Conditions: vitamin C 1 mM
Method: The antioxidant activity of the natural composite preservatives was analyzed with DPPH (1,1-diphenyl-2-picrylhydrazyl). DPPH is a color radical generally used in determining radical scavenging capacity. Test samples were dissolved in 4 ml of distilled water or a solvent and mixed with 1 ml of 100 μM DPPH before incubation at room temperature for 30 min. Absorbance at 517 nm was read to calculate the amount of remaining DPPH (blank: distilled water or solvent only, control: DPPH alone in distilled water or solvent). Radical Scavenging Activity (RSA) was expressed as percentages of the test groups relative to the control, as calculated by the following equation 1.

Structure (SMILES): O=C1O[C@H]([C@@H](O)CO)C(O)=C1O [vitamin C]
- RSA: 35%
